The results in this text go back to ChEMBL document CHEMBL1201862, “PubChem BioAssay data set” (2004).

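Each compound was tested at five concentrations against cells in 96-well plates for 48 hours. GI50: concentration for 50% inhibition of growth.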 Activity calls are given as the source filed them. Cut-off read from the data, not from the text of the source: active = GI50 up to about 1.1 µM and inactive = higher.

Among the test systems are SR; MDA-MB-435; K562; HCT-116; SNB-75; MOLT-4; SK-MEL-5; DU-145; BT-549; MCF7; A498; SW-620; SF-268; HOP-62; RXF 393; SN12C; HOP-92; NCI-H226; MDA-N.
What all share (test): growth of human tumour cells (NCI), 48 h

For the compound `CCOC(=O)C(C(=O)OCC)C(=O)c1ccccc1C(=O)c1ccccc1`, the GI50 in the assay with SR was 18.1 µM (inactive); in the assay with MDA-MB-435, > 100 µM (inactive); with K562 it was > 100 µM (inactive); with HCT-116, 59 µM (inactive); with SNB-75, > 100 µM (inactive); in the assay with MOLT-4, 23.4 µM (inactive). For the same compound, the GI50 in the assay on SK-MEL-5 is 97.1 µM (inactive); in the assay with DU-145 it was 43.8 µM (inactive); with BT-549, 33.4 µM (inactive); in the assay with MCF7, > 100 µM (inactive); in the assay on A498 it was > 100 µM (inactive); in the assay with SW-620, 19.5 µM (inactive). The GI50 in the assay on SF-268, with HOP-62, in the assay on RXF 393, with SN12C, with HOP-92 and in the assay on NCI-H226 was > 100 µM (inactive) in each case.
For `CC(C)(C)OC(=O)C(C#N)C(=O)c1ccc(C(=O)O)[nH]1` (configuration not stated), the GI50 was 32.3 µM (inactive) in the assay with MDA-MB-435; 22.6 µM (inactive) in the assay on K562; 38.4 µM (inactive) in the assay on HCT-116; 50.5 µM (inactive) in the assay on SNB-75; 40.4 µM (inactive) with MDA-N; 33.6 µM (inactive) in the assay on MOLT-4. For the same compound, the GI50 in the assay on SK-MEL-5 is 31 µM (inactive); in the assay on DU-145, 48.2 µM (inactive); with BT-549, 48.5 µM (inactive); with A498, 20.5 µM (inactive); in the assay on SW-620, 34.9 µM (inactive); in the assay with SF-268, 47.4 µM (inactive). In addition, the figures for the GI50 in the assay on SN12C, in the assay with HOP-92 and in the assay on NCI-H226 were 43.1 µM (inactive), 12 µM (inactive) and 38 µM (inactive), respectively.
Regarding `COc1c(OC)c(OC)c(-c2cc(=O)c3c(OC)c(OC)c(OC)c(OC)c3o2)c(OC)c1OC`, the GI50 in the assay on SR was > 100 µM (inactive); in the assay on MDA-MB-435, 34.5 µM (inactive); with K562 it was 41.1 µM (inactive); in the assay on HCT-116, 20.6 µM (inactive); with SNB-75, 57.5 µM (inactive); in the assay on MDA-N, 38 µM (inactive). Besides, the GI50 with MOLT-4 was 32.7 µM (inactive); in the assay with SK-MEL-5 it was 24.2 µM (inactive); in the assay on DU-145 it was 62.5 µM (inactive); with BT-549, 34.5 µM (inactive); with A498 it was 31.3 µM (inactive); in the assay with SW-620, 30 µM (inactive). The GI50 was 69.5 µM (inactive) in the assay with SF-268; 81.8 µM (inactive) in the assay with HOP-62; 27.3 µM (inactive) with RXF 393; 50.5 µM (inactive) in the assay on SN12C; 21.3 µM (inactive) in the assay with HOP-92; 54.2 µM (inactive) in the assay with NCI-H226.
For the compound `COC(=O)c1c(O)c2c(c3c1OC(C)(C)CC3)OC(C)(C)CC2`, the GI50 in the assay with K562 was 25.1 µM (inactive); with HCT-116, 16.8 µM (inactive); with SNB-75, > 10 µM (inactive); in the assay with MDA-N, 22.1 µM (inactive); with MOLT-4, 22.7 µM (inactive); in the assay with SK-MEL-5, 15 µM (inactive). The GI50 was 24.5 µM (inactive) in the assay on DU-145; 20 µM (inactive) in the assay on BT-549; 18.2 µM (inactive) with MCF7; 18.7 µM (inactive) in the assay on A498; 17.5 µM (inactive) in the assay on SW-620; 22.9 µM (inactive) with SF-268. Moreover, the GI50 is 21 µM (inactive) in the assay with HOP-62, 16 µM (inactive) in the assay with SN12C and 19.3 µM (inactive) in the assay on NCI-H226.
As to `N#CC(c1cc(Cl)ncn1)c1nc2ccccc2s1` (configuration not stated), the GI50 in the assay with MDA-MB-435 is 18.1 µM (inactive); in the assay on K562 it was 4.93 µM (inactive); in the assay on HCT-116, 7.53 µM (inactive); with SNB-75, 13.6 µM (inactive); in the assay on MDA-N, 6.03 µM (inactive); in the assay with MOLT-4, 3.42 µM (inactive). Further, the GI50 is 16.4 µM (inactive) in the assay with SK-MEL-5; 5.56 µM (inactive) in the assay with DU-145; 5 µM (inactive) with BT-549; 21.8 µM (inactive) in the assay on A498; 4.62 µM (inactive) in the assay on SW-620; 5.25 µM (inactive) with SF-268. For the same compound, the GI50 was 14.1 µM (inactive) in the assay on HOP-62; 16.1 µM (inactive) with RXF 393; 2.61 µM (inactive) with SN12C; 3.57 µM (inactive) in the assay with HOP-92; 25.8 µM (inactive) in the assay with NCI-H226.
Consider `N=C(N)N/N=C/c1c(-c2ccc(Cl)c([N+](=O)[O-])c2)nc2sccn12`, for which the GI50 was 2.05 µM (inactive) with SR; 0.6 µM (active) in the assay on MDA-MB-435; 0.845 µM (active) with K562; 1.37 µM (inactive) in the assay on HCT-116; 1.62 µM (inactive) in the assay with SNB-75; 1.71 µM (inactive) in the assay on MOLT-4. The GI50 in the assay on SK-MEL-5 was 1.73 µM (inactive); in the assay on DU-145 it was 1.78 µM (inactive); in the assay on BT-549, 1.89 µM (inactive); with MCF7, 1.37 µM (inactive); with A498, 1.72 µM (inactive); in the assay on SW-620, 1.53 µM (inactive). The GI50 with SF-268 was 1.92 µM (inactive); in the assay on HOP-62 it was 1.85 µM (inactive); in the assay on RXF 393 it was 1.22 µM (inactive); in the assay with SN12C, 1.82 µM (inactive); in the assay on HOP-92, 1.87 µM (inactive); in the assay with NCI-H226, 1.92 µM (inactive).
Regarding `COc1cccc(/C=C2\CCCCCC2=O)c1`, the GI50 in the assay on SR was 26.7 µM (inactive); in the assay with MDA-MB-435 it was 48.1 µM (inactive); with K562, 72.3 µM (inactive); in the assay with HCT-116, 80.7 µM (inactive); with SNB-75 it was 62.5 µM (inactive); in the assay on MDA-N, > 100 µM (inactive). Also, the GI50 with MOLT-4 was 71.9 µM (inactive); in the assay on SK-MEL-5, 70.1 µM (inactive); in the assay with DU-145, > 100 µM (inactive); with BT-549 it was > 100 µM (inactive); in the assay with A498, > 100 µM (inactive); in the assay with SW-620, > 100 µM (inactive). Moreover, the GI50 in the assay with SF-268, in the assay on HOP-62, in the assay on SN12C, in the assay with HOP-92 and with NCI-H226 was > 100 µM (inactive) throughout.
In the case of `O=C1C(Cl)=C(N2CCN(CCOCCO)CC2)C(=O)c2ncccc21`, the GI50 in the assay on SR is > 10 µM (inactive); in the assay on MDA-MB-435, 2.65 µM (inactive); with K562, > 10 µM (inactive); in the assay with HCT-116, 5.07 µM (inactive); in the assay on SNB-75 it was > 10 µM (inactive); in the assay with MOLT-4 it was > 10 µM (inactive). In addition, the GI50 with SK-MEL-5, in the assay on DU-145, in the assay on BT-549, with MCF7, in the assay on A498 and with SW-620 was > 10 µM (inactive) in each case. The GI50 is > 10 µM (inactive) in the assay with SF-268; > 10 µM (inactive) in the assay with HOP-62; 3.69 µM (inactive) in the assay on RXF 393; > 10 µM (inactive) in the assay on SN12C; 1.63 µM (inactive) in the assay with HOP-92; > 10 µM (inactive) with NCI-H226.
In the case of `NC(=O)c1ccc(/N=N/O)nc1`, the GI50 in the assay with SR, with K562, in the assay with HCT-116, in the assay on SNB-75, in the assay on MDA-N and in the assay on MOLT-4 was > 100 µM (inactive) each time. Besides, the GI50 in the assay on SK-MEL-5, in the assay on DU-145, with BT-549, in the assay with MCF7, in the assay with A498 and in the assay on SW-620 was > 100 µM (inactive) in each case. The GI50 in the assay with SF-268, in the assay with HOP-62, with SN12C and with NCI-H226 was > 100 µM (inactive) throughout.
